This is an account of results in ChEMBL document CHEMBL5226308, “Amide-Amine Replacement in Indole-2-carboxamides Yields Potent Mycobactericidal Agents with Improved Water Solubility” (ACS Med Chem Lett, 2021).

Assay [1] concerns Mycobacterium tuberculosis variant bovis. Briefly: Antimycobacterial activity against Mycobacterium bovis BCG ATCC 35734 assessed as inhibition of bacterial growth incubated for 5 days in 7H9 standard media by broth dilution method. The format is functional. As to conditions: BCG ATCC 35734, 120 h, time 5 day.
Assay [2] shares this test system. Description: Antimycobacterial activity against Mycobacterium bovis BCG ATCC 35734 assessed as inhibition of bacterial growth incubated for 5 days in 7H9 medium with omission of glycerol by broth dilution method. As to conditions: BCG ATCC 35734, 120 h, time 5 day. The assay is classed as functional.
Assay [3] shares this test system. Briefly: Antimycobacterial activity against Mycobacterium bovis BCG ATCC 35734 assessed as inhibition of bacterial growth incubated for 5 days in 7H9 medium with addition of 10% FBS by broth dilution method. The format is functional. The settings on record: BCG ATCC 35734, 120 h, time 5 day.
Assay [4] shares this test system. Briefly: Disruption of proton motive force in Mycobacterium bovis BCG ATCC 35734 assessed as loss in mitochondrial membrane potential by measuring decline in fluorescence ratio at 4XMIC90 measured after >=12 hrs by DiOC2 based fluorescence analysis. The assay is classed as functional, organism-based.
Assay [5] shares this test system. Description: Myco-bactericidal activity against Mycobacterium bovis BCG ATCC 35734 assessed as inhibition of bacterial colony formation incubated for 5 days by agar plate method. The format is functional. As to conditions: BCG ATCC 35734, 120 h, time 5 day, read-out: MBC99.9.

Values after ≈ are worked out from the molar mass of the structure shown. Active and inactive are the calls of the source. No cut-off for these calls is given here. Where only a bound is given, the exact number is not on record here.

On to `Clc1ccc2cc(CNC3CCCCCCC3)[nH]c2c1`, for which the MIC90 in assay [1] amounted to 0.1 µM (≈ 0.0291 µg/mL).
Same read-out and setting: in the case of `O=C(NC12CC3CC(CC(C3)C1)C2)c1cc2ccccc2s1` it was 0.9 µM (≈ 0.28 µg/mL); in that of `O=C(NC1CCCCCCC1)c1cc2ccc(Cl)cc2[nH]1`, 0.11 µM (≈ 0.0335 µg/mL).
On the same count and under the same terms, the result for `O=C(NC1CCCCCCC1)c1cc2cc([N+](=O)[O-])ccc2[nH]1` reads 0.41 µM (≈ 0.129 µg/mL); that for `Brc1ccc2cc(CNC3CCCCCCC3)[se]c2c1`, 0.54 µM (≈ 0.216 µg/mL).
On the same count and under the same terms, the result for `O=C(NC1CCCCCCC1)c1cc2ccc(C(F)(F)F)cc2[se]1` reads 1.8 µM (≈ 0.724 µg/mL); that for `COc1ccc2[nH]c(CNC3CCCCCCC3)cc2c1`, 1.5 µM (≈ 0.43 µg/mL); that for `FC(F)(F)c1ccc2cc(CNC3CCCCC3)[nH]c2c1`, 1.1 µM (≈ 0.326 µg/mL).
`FC(F)(F)c1ccc2cc(CNC3CCCCCCC3)[nH]c2c1`: the MIC50 in assay [1] worked out at 0.04 µM (≈ 0.013 µg/mL); in assay [2] it was 0.04 µM (≈ 0.013 µg/mL); in assay [3] it was 0.07 µM (≈ 0.0227 µg/mL). Moreover, the MIC90 is 0.08 µM (≈ 0.026 µg/mL) in assay [1] and 0.16 µM (≈ 0.0519 µg/mL) in assay [3]. For the same molecule, in assay [4], the outcome was Active. The MBC in assay [5] was 0.16 µM (≈ 0.0519 µg/mL).
With `O=C(NC1CCCCCCC1)c1cc2ccccc2s1`, the MIC90 in assay [1] amounted to 0.5 µM (≈ 0.144 µg/mL). Besides, the outcome in assay [4] was Active.
Regarding `O=C(NC1CCCCCC1)c1cc2ccc(C(F)(F)F)cc2[nH]1`, the MIC90 in assay [1] turned out to be 0.21 µM (≈ 0.0681 µg/mL).
Still for that read-out and setting: the result for `NC(=O)c1cc2ccccc2s1` reads more than 50 µM; that for `O=C(NC1CCCCCC1)c1cc2ccccc2[se]1`, 2.7 µM (≈ 0.865 µg/mL); that for `O=C(NC1CCCCCCC1)c1cc2ccccc2[nH]1`, 0.52 µM (≈ 0.141 µg/mL).
Same read-out and setting: the result for `c1ccc2[se]c(CNC3CCCCC3)cc2c1` reads more than 35 µM; that for `c1ccc(COc2ccc3[nH]c(CNC4CCCCCCC4)cc3c2)cc1`, 0.31 µM (≈ 0.112 µg/mL).
Regarding `COc1ccc2cc(C(=O)NC3CCCCCCC3)[nH]c2c1`, the MIC90 in assay [1] was found to be 1.1 µM (≈ 0.33 µg/mL).
On the same count and under the same terms, the result for `O=C(NC1CCCCCCC1)c1cc2cc(OCc3ccccc3)ccc2[nH]1` reads 0.17 µM (≈ 0.064 µg/mL); that for `c1ccc2sc(CNC34CC5CC(CC(C5)C3)C4)cc2c1`, 3.6 µM (≈ 1.07 µg/mL); that for `O=C(NC1CCCCCCC1)c1cc2ccc(Br)cc2[nH]1`, 0.06 µM (≈ 0.021 µg/mL).
With `O=C(NC1CCCCCCC1)c1cc2ccc(O)cc2[nH]1`, in assay [1], the MIC90 came to 11 µM (≈ 3.15 µg/mL).
`O=C(NC12CC3CC(CC(C3)C1)C2)c1cc2ccccc2[se]1`: in assay [1], the MIC90 worked out at 1 µM (≈ 0.358 µg/mL).
Same read-out and setting: the result for `c1ccc2sc(CNC3CCCCCC3)cc2c1` reads 5 µM (≈ 1.3 µg/mL).
For `O=C(NC1CCCCCCC1)c1cc2ccccc2[se]1`, the MIC90 in assay [1] was found to be 0.7 µM (≈ 0.234 µg/mL). Moreover, the outcome in assay [4] was Active.
As for `Cc1cc(C)c2cc(C(=O)NC3CCCCCCC3)[nH]c2c1`, the MIC90 in assay [1] came out at 0.04 µM (≈ 0.0119 µg/mL).
On the same count and under the same terms, in the case of `O=C(NC1CCCCCC1)c1cc2ccccc2s1` it was 3 µM (≈ 0.82 µg/mL).
The same measure, in the same setting: in the case of `O=C(NC1CCCCCCC1)c1cc2cc(F)ccc2[nH]1` it was 0.61 µM (≈ 0.176 µg/mL); in that of `COc1ccc2cc(CNC3CCCCCCC3)[nH]c2c1`, 1.2 µM (≈ 0.344 µg/mL); in that of `O=C(NC1CCCCCCC1)c1cc2ccc(Br)cc2[se]1`, 0.78 µM (≈ 0.322 µg/mL).
Still for that read-out and setting: the result for `O=C(NC1CCCCC1)c1cc2ccccc2[se]1` reads more than 50 µM.
Take `Fc1ccc2[nH]c(CNC3CCCCCCC3)cc2c1`: the MIC90 in assay [1] worked out at 0.33 µM (≈ 0.0905 µg/mL).
On the same count and under the same terms, the result for `Brc1ccc2cc(CNC3CCCCCCC3)[nH]c2c1` reads 0.16 µM (≈ 0.0536 µg/mL); that for `O=C(NC1CCCCCCC1)c1cc2ccc(F)cc2[nH]1`, 0.18 µM (≈ 0.0519 µg/mL).
On the same count and under the same terms, in the case of `c1ccc2[se]c(CNC34CC5CC(CC(C5)C3)C4)cc2c1` it was 2.7 µM (≈ 0.93 µg/mL).
As to `c1ccc2sc(CNC3CCCCCCC3)cc2c1`, in assay [1], the MIC90 came out at 3.4 µM (≈ 0.93 µg/mL). In addition, the outcome in assay [4] was Active.
As for `O=C(NC1CCCCCCC1)c1cc2ccc(OCc3ccccc3)cc2[nH]1`, the MIC90 in assay [1] turned out to be 0.07 µM (≈ 0.0264 µg/mL).
Same read-out and setting: the result for `c1ccc2sc(CNC3CCCCC3)cc2c1` reads more than 45 µM.
Turning to `FC(F)(F)c1ccc2cc(CNC3CCCCCCC3)sc2c1`, the MIC90 in assay [1] amounted to 0.78 µM (≈ 0.266 µg/mL).
Turning to `c1ccc2[se]c(CNC3CCCCCCC3)cc2c1`, the MIC90 in assay [1] turned out to be 2.1 µM (≈ 0.673 µg/mL). For the same molecule, in assay [4], the result was Active.
On to `O=C(NC1CCCCCCC1)c1cc2cc(O)ccc2[nH]1`, for which the MIC90 in assay [1] turned out to be 48 µM (≈ 13.7 µg/mL).
Regarding `O=C(NC1CCCCCCC1)c1cc2ccc(Br)cc2s1`, the MIC90 in assay [1] amounted to 0.8 µM (≈ 0.293 µg/mL).
Still for that read-out and setting: the result for `O=C(NC1CCCCC1)c1cc2ccc(C(F)(F)F)cc2[nH]1` reads 1.6 µM (≈ 0.497 µg/mL).
Regarding `Brc1ccc2cc(CNC3CCCCCCC3)sc2c1`, in assay [1], the MIC90 was 2.2 µM (≈ 0.775 µg/mL).
Still for that read-out and setting: in the case of `O=C(NC1CCCCCCC1)c1cc2cc(Br)ccc2[nH]1` it was 1.1 µM (≈ 0.384 µg/mL).
On the same count and under the same terms, the result for `O=C(NC1CCCCC1)c1cc2ccccc2s1` reads more than 50 µM; that for `Clc1ccc2[nH]c(CNC3CCCCCCC3)cc2c1`, 0.22 µM (≈ 0.064 µg/mL).
The same measure, in the same setting: the result for `COc1ccc2[nH]c(C(=O)NC3CCCCCCC3)cc2c1` reads 0.65 µM (≈ 0.195 µg/mL); that for `O=C(NC1CCCCCCC1)c1cc2ccc(C(F)(F)F)cc2s1`, 0.4 µM (≈ 0.142 µg/mL).
`c1ccc2[se]c(CNC3CCCCCC3)cc2c1`: the MIC90 in assay [1] was determined as 5 µM (≈ 1.53 µg/mL).
With `NNC(=O)c1ccncc1` [ISONIAZID], the MBC in assay [5] turned out to be 10 µM (≈ 1.37 µg/mL).
Turning to `O=[N+]([O-])c1ccc2[nH]c(CNC3CCCCCCC3)cc2c1`, the MIC90 in assay [1] is 0.69 µM (≈ 0.208 µg/mL).
For the molecule `Fc1ccc2cc(CNC3CCCCCCC3)[nH]c2c1`, in assay [1], the MIC90 was found to be 0.43 µM (≈ 0.118 µg/mL).
Still for that read-out and setting: the result for `O=C(NC1CCCCCCC1)c1cc2cc(Cl)ccc2[nH]1` reads 0.8 µM (≈ 0.244 µg/mL).
Still for that read-out and setting: the result for `Cc1cc(C)c2cc(CNC3CCCCCCC3)[nH]c2c1` reads 0.25 µM (≈ 0.0711 µg/mL).
Still for that read-out and setting: the result for `c1ccc2[nH]c(CNC3CCCCCCC3)cc2c1` reads 0.75 µM (≈ 0.192 µg/mL).
For `O=C(NC1CCCCCCC1)c1cc2ccc(C(F)(F)F)cc2[nH]1`, the figures for the MIC50 in assay [1], in assay [2] and in assay [3] were 0.02 µM (≈ 0.00677 µg/mL), 0.01 µM (≈ 0.00338 µg/mL) and 0.02 µM (≈ 0.00677 µg/mL), respectively. The MIC90 in assay [1] was found to be 0.04 µM (≈ 0.0135 µg/mL); in assay [3] it was 0.08 µM (≈ 0.0271 µg/mL). For the same molecule, in assay [4], the outcome was Active. Also, the MBC in assay [5] was found to be 0.08 µM (≈ 0.0271 µg/mL).
For the molecule `Brc1ccc2[nH]c(CNC3CCCCCCC3)cc2c1`, in assay [1], the MIC90 was 0.74 µM (≈ 0.248 µg/mL).
Still for that read-out and setting: in the case of `FC(F)(F)c1ccc2cc(CNC3CCCCCCC3)[se]c2c1` it was 2 µM (≈ 0.777 µg/mL).
